ChEMBL document CHEMBL3758173, “Identification of β-Amino alcohol grafted 1,4,5 trisubstituted 1,2,3-triazoles as potent antimalarial agents” (Eur J Med Chem, 2016)
Activity calls are given as the source filed them. No cut-off for these calls is given here.

Experiments:
[1] = Selectivity index, ratio of CC50 for monkey kidney VERO cells to IC50 for chloroquine sensitive Plasmodium falciparum 3D7 infected in human erythrocytes; assay type: functional
[2] = Resistance index, ratio of IC50 for chloroquine resistant Plasmodium falciparum K1 infected in human erythrocytes to IC50 for chloroquine sensitive Plasmodium falciparum 3D7 infected in human erythrocytes; assay type: functional
[3] = tested on: Plasmodium falciparum; assay: Antiplasmodial activity against chloroquine resistant Plasmodium falciparum K1 infected in human erythrocytes incubated for 72 hrs by SYBR Green1-based fluorescence analysis; assay type: functional, organism-based; conditions: K1, 72 h
[4] = tested on: Plasmodium falciparum; assay: Antiplasmodial activity against chloroquine sensitive Plasmodium falciparum 3D7 infected in human erythrocytes incubated for 72 hrs by SYBR Green1-based fluorescence analysis; assay type: functional, organism-based; conditions: 3D7, 72 h
[5] = Cytotoxicity against monkey kidney Vero cells by resazurin assay; assay type: cell-based; conditions: chlorocebus sabaeus
[6] = Selectivity index, ratio of CC50 for monkey kidney VERO cells to IC50 for chloroquine resistant Plasmodium falciparum K1 infected in human erythrocytes; assay type: functional
[7] = tested on: Mus musculus; assay: Toxicity in multidrug-resistant Plasmodium yoelii nigeriensis infected Swiss mouse assessed as mouse survival at 100 mg/kg/day, po for 4 days; assay type: organism-based; conditions: in vivo, 96 h
[8] = tested on: MCF7; assay: Induction of p53 protein expression in human MCF7 cells at antiplasmodial IC50 after 36 hrs by luciferase reporter assay relative to control; assay type: functional
[9] = tested on: Plasmodium yoelii nigeriensis; assay: Antiplasmodial activity against multidrug-resistant Plasmodium yoelii nigeriensis infected in Swiss mouse assessed as suppression of parasitaemia at 100 mg/kg, po for 4 days by Geimsa-staining based analysis; assay type: functional; conditions: 96 h
[10] = tested on: MCF7; assay: Upregulation of p53 level in human MCF7 cells at antiplasmodial IC50 after 48 hrs by immnublotting method; assay type: functional, cell-based; conditions: TDE = time-dependent effect
[11] = tested on: MCF7; assay: Induction of p53 protein expression in human MCF7 cells at antiplasmodial IC50 after 36 hrs by luciferase reporter assay relative to control relative to doxorubicin; assay type: functional
[12] = Mean residence time(last) in Sprague-Dawley rat at 100 mg/kg, po after 0 to 48 hrs by LC-MS/MS analysis; assay type: ADME, organism-based; conditions: in vivo
[13] = Cmax in Sprague-Dawley rat at 100 mg/kg, po after 0 to 48 hrs by LC-MS/MS analysis; assay type: ADME, organism-based; set-up: dose 100 mg/kg, route oral; conditions: in vivo
[14] = tested on: Rattus norvegicus; assay: Apparent oral volume of distribution in Sprague-Dawley rat at 100 mg/kg, po after 0 to 48 hrs by LC-MS/MS analysis; assay type: ADME, organism-based; conditions: in vivo
[15] = Tmax in Sprague-Dawley rat at 100 mg/kg, po after 0 to 48 hrs by LC-MS/MS analysis; assay type: ADME, organism-based; conditions: in vivo
[16] = Apparent oral clearance in Sprague-Dawley rat at 100 mg/kg, po after 0 to 48 hrs by LC-MS/MS analysis; assay type: ADME, organism-based; conditions: in vivo
[17] = tested on: Rattus norvegicus; assay: AUC(last) in Sprague-Dawley rat at 100 mg/kg, po after 0 to 48 hrs by LC-MS/MS analysis; assay type: ADME, organism-based; set-up: dose 100 mg/kg, time 0 - last, route oral; conditions: in vivo

Cc1ccc(NCC(O)(c2ccc(Cl)cc2)c2nnn(Cc3ccccc3)c2-c2ccc(Cl)cc2)cc1C (stereo not given)
Ratio CC50/IC50 [1]: 183.15 | Ratio IC50 [2]: 1.41 | IC50 [3]: 3.18 µM | IC50 [4]: 2.24 µM | CC50 [5]: > 500 µM | Ratio CC50/IC50 [6]: 195.31

OC(CNc1ccc(Cl)cc1)(c1ccc(Cl)cc1)c1nnn(Cc2ccccc2)c1-c1ccc(F)cc1 (stereo not given)
Ratio CC50/IC50 [1]: >175.43 | Ratio IC50 [2]: 0.72 | IC50 [3]: 2.06 µM | IC50 [4]: 2.85 µM | CC50 [5]: > 500 µM | Ratio CC50/IC50 [6]: >242.71

Cc1ccc(NCC(O)(c2ccc(Cl)cc2)c2nnn(Cc3ccccc3)c2-c2ccc(F)cc2)cc1C (stereo not given)
Ratio CC50/IC50 [1]: >187.26 | Ratio IC50 [2]: 1.04 | IC50 [3]: 2.8 µM | IC50 [4]: 2.67 µM | CC50 [5]: > 500 µM | Ratio CC50/IC50 [6]: >178.57

OC(CNc1ccc(Br)cc1)(c1ccc(Cl)cc1)c1nnn(Cc2ccccc2)c1-c1ccc(F)cc1 (stereo not given)
Ratio CC50/IC50 [1]: >454.54 | Ratio IC50 [2]: 1.82 | IC50 [3]: 2.01 µM | Activity [7]: Non-toxic | IC50 [4]: 1.1 µM | Activity [8]: Active | CC50 [5]: > 500 µM | Ratio CC50/IC50 [6]: >248.75 | inhibition in vivo at 100 mg/kg [9]: 64.6%

OC(CNc1ccc(F)c(F)c1)(c1ccc(Cl)cc1)c1nnn(Cc2ccccc2)c1-c1ccc(Cl)cc1 (stereo not given)
Ratio CC50/IC50 [1]: >232.55 | Ratio IC50 [2]: 0.23 | IC50 [3]: 0.5 µM | Activity [7]: Non-toxic | IC50 [4]: 2.15 µM | CC50 [5]: > 500 µM | Ratio CC50/IC50 [6]: >1000 | inhibition in vivo at 100 mg/kg [9]: 89.9%

OC(CNc1ccc(F)cc1)(c1ccc(Cl)cc1)c1nnn(Cc2ccccc2)c1-c1ccc(Br)cc1 (stereo not given)
Ratio CC50/IC50 [1]: >155.76 | Ratio IC50 [2]: 1 | IC50 [3]: 3.23 µM | IC50 [4]: 3.21 µM | CC50 [5]: > 500 µM | Ratio CC50/IC50 [6]: >154.79

OC(CNc1ccc(F)cc1)(c1ccc(Cl)cc1)c1nnn(Cc2ccccc2)c1-c1ccccc1 (stereo not given)
Ratio CC50/IC50 [1]: >151.05 | Ratio IC50 [2]: 1.07 | IC50 [3]: 3.57 µM | IC50 [4]: 3.31 µM | CC50 [5]: > 500 µM | Ratio CC50/IC50 [6]: >140.05

COc1cc(NCC(O)(c2ccc(Cl)cc2)c2nnn(Cc3ccccc3)c2-c2ccc(Cl)cc2)ccc1Br (stereo not given)
Ratio CC50/IC50 [1]: >303.3 | Ratio IC50 [2]: 0.92 | IC50 [3]: 1.53 µM | IC50 [4]: 1.65 µM | CC50 [5]: > 500 µM | Ratio CC50/IC50 [6]: >326.29

Cc1ccc(NCC(O)(c2ccc(Br)cc2)c2nnn(Cc3ccccc3)c2-c2ccccc2)cc1C (stereo not given)
Ratio CC50/IC50 [1]: >183.8 | Ratio IC50 [2]: 1.27 | IC50 [3]: 3.48 µM | IC50 [4]: 2.72 µM | CC50 [5]: > 500 µM | Ratio CC50/IC50 [6]: >143.6

OC(CNc1ccc(F)cc1)(c1ccc(Cl)cc1)c1nnn(Cc2ccccc2)c1-c1ccc(F)cc1 (stereo not given)
Ratio CC50/IC50 [1]: >129.19 | Ratio IC50 [2]: 0.85 | IC50 [3]: 3.29 µM | IC50 [4]: 3.87 µM | CC50 [5]: > 500 µM | Ratio CC50/IC50 [6]: >151.97

Cc1ccc(C(O)(CNc2ccc(C)c(C)c2)c2nnn(Cc3ccccc3)c2-c2ccc(Cl)cc2)cc1 (stereo not given)
Ratio CC50/IC50 [1]: >280.89 | Ratio IC50 [2]: 1.51 | IC50 [3]: 2.69 µM | IC50 [4]: 1.78 µM | CC50 [5]: > 500 µM | Ratio CC50/IC50 [6]: >185.87

CCN(CC)CCCC(C)Nc1ccnc2cc(Cl)ccc12 (stereo not given) [CHLOROQUINE PHOSPHATE]
CC50 [5]: > 500 µM

OC(CNc1ccc(I)cc1)(c1ccc(Cl)cc1)c1nnn(Cc2ccccc2)c1-c1ccc(Cl)cc1 (stereo not given)
Ratio CC50/IC50 [1]: >337.83 | Ratio IC50 [2]: 0.99 | IC50 [3]: 1.47 µM | IC50 [4]: 1.48 µM | CC50 [5]: > 500 µM | Ratio CC50/IC50 [6]: >340.1

OC(CNc1cccc2ccccc12)(c1ccc(Cl)cc1)c1nnn(Cc2ccccc2)c1-c1ccc(Cl)cc1 (stereo not given)
Ratio CC50/IC50 [1]: 217.59 | Ratio IC50 [2]: 0.92 | IC50 [3]: 1.23 µM | IC50 [4]: 1.33 µM | Activity [8]: Active | CC50 [5]: 290 µM | Ratio CC50/IC50 [6]: 235.39 | Activity [10]: tde

OC(CNc1ccc(F)cc1)(c1ccc(Br)cc1)c1nnn(Cc2ccccc2)c1-c1ccccc1 (stereo not given)
Ratio CC50/IC50 [1]: >184.5 | Ratio IC50 [2]: 1.69 | IC50 [3]: 4.59 µM | IC50 [4]: 2.71 µM | CC50 [5]: > 500 µM | Ratio CC50/IC50 [6]: >108.9

OC(CNc1ccc(Br)cc1)(c1ccc(Cl)cc1)c1nnn(Cc2ccccc2)c1-c1ccc(Br)cc1 (stereo not given)
Ratio CC50/IC50 [1]: >574.71 | Ratio IC50 [2]: 2.45 | IC50 [3]: 2.04 µM | Activity [7]: Non-toxic | IC50 [4]: 0.87 µM | CC50 [5]: > 500 µM | Ratio CC50/IC50 [6]: >233.64 | inhibition in vivo at 100 mg/kg [9]: 27.2%

OC(CNc1ccc2c(c1)OCO2)(c1ccc(Cl)cc1)c1nnn(Cc2ccccc2)c1-c1ccc(Cl)cc1 (stereo not given)
Ratio CC50/IC50 [1]: >183.1 | Ratio IC50 [2]: 0.93 | IC50 [3]: 2.56 µM | IC50 [4]: 2.73 µM | CC50 [5]: > 500 µM | Ratio CC50/IC50 [6]: >195.3

OC(CNc1ccccc1Br)(c1ccc(Cl)cc1)c1nnn(Cc2ccccc2)c1-c1ccc(F)cc1 (stereo not given)
Ratio CC50/IC50 [1]: >55 | Ratio IC50 [2]: 0.93 | IC50 [3]: 8.46 µM | IC50 [4]: 9.09 µM | CC50 [5]: > 500 µM | Ratio CC50/IC50 [6]: >59.1

CC(C)c1ccc(-c2c(C(O)(CNc3ccc(F)cc3)c3ccc(Cl)cc3)nnn2Cc2ccccc2)cc1 (stereo not given)
Ratio CC50/IC50 [1]: >316.45 | Ratio IC50 [2]: 1.05 | IC50 [3]: 1.67 µM | IC50 [4]: 1.58 µM | CC50 [5]: > 500 µM | Ratio CC50/IC50 [6]: >299.4

OC(CNc1ccc(Br)cc1)(c1ccc(Br)cc1)c1nnn(Cc2ccccc2)c1-c1ccccc1 (stereo not given)
Ratio CC50/IC50 [1]: >303.03 | Ratio IC50 [2]: 0.3 | IC50 [3]: 0.5 µM | Activity [7]: Non-toxic | IC50 [4]: 1.65 µM | Activity [8]: Active | CC50 [5]: > 500 µM | Ratio CC50/IC50 [6]: >1000 | Activity [10]: tde | inhibition in vivo at 100 mg/kg [9]: 16.8%

OC(CNc1ccc(Br)cc1)(c1ccc(Cl)cc1)c1nnn(Cc2ccccc2)c1-c1ccccc1 (stereo not given)
Ratio CC50/IC50 [1]: >256.41 | Ratio IC50 [2]: 0.95 | IC50 [3]: 1.87 µM | IC50 [4]: 1.95 µM | CC50 [5]: > 500 µM | Ratio CC50/IC50 [6]: >267.37

CC(C)c1ccc(-c2c(C(O)(CNc3ccc(Br)cc3)c3ccc(Cl)cc3)nnn2Cc2ccccc2)cc1 (stereo not given)
Ratio CC50/IC50 [1]: 515.3 | fold change (FC) [11]: 10 | Ratio IC50 [2]: >7.03 | MRT last [12]: 15 h | Cmax [13]: 212 ng/mL | IC50 [3]: 2.11 µM | Activity [7]: Non-toxic | IC50 [4]: 0.3 µM | fold change (FC) [8]: 20 | Vd/F [14]: 1837.17 L/kg | Tmax [15]: 4 h | CL/F [16]: 741 mL/min/kg | CC50 [5]: 155 µM | Ratio CC50/IC50 [6]: 73.26 | Activity [10]: tde | AUClast [17]: 1590 ng·h/mL | inhibition in vivo at 100 mg/kg [9]: 86.8%

OC(CNc1ccccc1Br)(c1ccc(Cl)cc1)c1nnn(Cc2ccccc2)c1-c1ccc(Br)cc1 (stereo not given)
Ratio CC50/IC50 [1]: >43.21 | Ratio IC50 [2]: 0.74 | IC50 [3]: 8.61 µM | IC50 [4]: 11.6 µM | CC50 [5]: > 500 µM | Ratio CC50/IC50 [6]: >58.07

OC(CNc1ccc(Br)cc1)(c1ccc(Cl)cc1)c1nnn(Cc2ccccc2)c1-c1ccc(Cl)cc1 (stereo not given)
Ratio CC50/IC50 [1]: >314.4 | Ratio IC50 [2]: 0.88 | IC50 [3]: 1.41 µM | IC50 [4]: 1.59 µM | CC50 [5]: > 500 µM | Ratio CC50/IC50 [6]: >354.6

Cc1ccc(NCC(O)(c2ccc(Cl)cc2)c2nnn(Cc3ccccc3)c2-c2ccccc2)cc1C (stereo not given)
Ratio CC50/IC50 [1]: >193.79 | Ratio IC50 [2]: 1.04 | IC50 [3]: 2.7 µM | IC50 [4]: 2.58 µM | CC50 [5]: > 500 µM | Ratio CC50/IC50 [6]: >185.18

OC(CNc1ccc(Br)cc1)(c1ccc(Cl)cc1)c1nnn(Cc2ccc(Br)cc2)c1-c1ccc(Cl)cc1 (stereo not given)
Ratio CC50/IC50 [1]: >206.61 | Ratio IC50 [2]: 0.69 | IC50 [3]: 1.68 µM | IC50 [4]: 2.42 µM | CC50 [5]: > 500 µM | Ratio CC50/IC50 [6]: >297.61
